These results are taken from PubChem BioAssay (NCI).

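Grown in 96-well plates, cells were treated for 48 hours with each compound at five concentrations. Insufficient inhibition: endpoint recorded as highest concentration tested. TGI: total growth inhibition.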

Test systems include COLO 205 colon; DLD-1 colon; DMS 114 small cell lung; KM20L2 colon; LXFL 529 NSCLC; M19-MEL melanoma; SK-MEL-2 melanoma; SK-MEL-5 melanoma; SNB-78 CNS; XF 498 CNS; DMS 273 small cell lung; RXF-631 renal; HOP-18 NSCLC.
Common to all, as to experiment: NCI anticancer screen, dose series, 48 h

As for `CC1=NN(C(=O)c2ccccc2O)C(=O)/C1=C/c1ccco1`, the TGI is > 63.8 µM with COLO 205 colon; > 100 µM in the experiment on DLD-1 colon; 6.94 µM with DMS 114 small cell lung; 81 µM with KM20L2 colon; > 100 µM with LXFL 529 NSCLC; 20 µM in the experiment with M19-MEL melanoma. Moreover, the TGI with SK-MEL-2 melanoma was > 100 µM; in the experiment with SK-MEL-5 melanoma, 9.19 µM; with SNB-78 CNS, > 100 µM; with XF 498 CNS, > 100 µM.

Turning to `COC(=O)N/N=C(\Cc1ccccc1)CN(C)C`, the TGI with COLO 205 colon, with DLD-1 colon, in the experiment on DMS 114 small cell lung, in the experiment with DMS 273 small cell lung, with KM20L2 colon and in the experiment on LXFL 529 NSCLC was > 100 µM in each case. The TGI in the experiment with M19-MEL melanoma, in the experiment with RXF-631 renal, with SK-MEL-2 melanoma, with SK-MEL-5 melanoma, in the experiment on SNB-78 CNS and in the experiment with XF 498 CNS was > 100 µM each time.

With `COc1ccc2c3c1O[C@]1(C)C34CCN(C)C(C2)C42C=C[C@@]1(OC)c1c(O)ccc(O)c12`, the TGI in the experiment with COLO 205 colon, with DLD-1 colon, with DMS 114 small cell lung, in the experiment on DMS 273 small cell lung, with HOP-18 NSCLC and in the experiment on KM20L2 colon was > 100 µM each time. In addition, the TGI in the experiment on LXFL 529 NSCLC, with SK-MEL-2 melanoma, with SK-MEL-5 melanoma, in the experiment on SNB-78 CNS and in the experiment on XF 498 CNS was > 100 µM each time.

Regarding `C/C(=N\NS(=O)(=O)c1ccc(C)cc1)C(CN1CCCCC1)C(c1ccccc1)c1c(O)c2ccccc2oc1=O` (stereo not drawn), the TGI with COLO 205 colon, in the experiment on DLD-1 colon, with HOP-18 NSCLC, with KM20L2 colon, with LXFL 529 NSCLC and in the experiment on SK-MEL-2 melanoma was > 100 µM throughout. Besides, the TGI in the experiment on SK-MEL-5 melanoma, in the experiment on SNB-78 CNS and in the experiment on XF 498 CNS was > 100 µM each time.

For `C=Cc1ccc(C)[n+](C[Si](C)(C)O[Si](C)(C)C)c1`, the TGI in the experiment on COLO 205 colon, with DLD-1 colon, in the experiment with DMS 114 small cell lung, in the experiment with DMS 273 small cell lung, in the experiment on KM20L2 colon and in the experiment with LXFL 529 NSCLC was > 100 µM in each case. The TGI in the experiment on RXF-631 renal, with SK-MEL-2 melanoma, with SK-MEL-5 melanoma and in the experiment on SNB-78 CNS was > 100 µM throughout.

Take `Cn1cc2ccccc2c1-c1nc(F)nc(F)n1`: the TGI with COLO 205 colon, with DLD-1 colon, in the experiment with DMS 114 small cell lung, in the experiment on DMS 273 small cell lung, in the experiment with KM20L2 colon and in the experiment with LXFL 529 NSCLC was > 100 µM in each case. The TGI in the experiment with M19-MEL melanoma was > 100 µM; in the experiment on SK-MEL-2 melanoma, > 100 µM; in the experiment with SK-MEL-5 melanoma it was > 100 µM; with SNB-78 CNS, > 100 µM; with XF 498 CNS, 90.6 µM.

Turning to `C[N+](C)(C)CC(=O)N/N=C/c1oc(-c2c(O)ccc3ccccc23)c(-c2c(O)ccc3ccccc23)c1[N+](=O)[O-]`, the TGI in the experiment on COLO 205 colon was 42.2 µM; in the experiment on DLD-1 colon, 54.6 µM; with HOP-18 NSCLC, 62.8 µM; with KM20L2 colon it was 36 µM; in the experiment on LXFL 529 NSCLC it was > 100 µM; in the experiment with M19-MEL melanoma it was 60.8 µM. Besides, the TGI with SK-MEL-2 melanoma is 33.4 µM; in the experiment on SK-MEL-5 melanoma, 22.9 µM; in the experiment with XF 498 CNS, 55.5 µM.

For `C[C@]12CCC(=O)C=C1CC[C@@H]1[C@@H]2CC[C@]2(C)C(=O)NC(=O)C[C@@H]12`, the TGI in the experiment on COLO 205 colon, in the experiment with DLD-1 colon, with DMS 114 small cell lung, in the experiment with DMS 273 small cell lung, in the experiment on HOP-18 NSCLC and in the experiment on KM20L2 colon was > 100 µM throughout. Besides, the TGI in the experiment on LXFL 529 NSCLC, in the experiment with M19-MEL melanoma, in the experiment on RXF-631 renal, with SK-MEL-2 melanoma, in the experiment with SK-MEL-5 melanoma and in the experiment on SNB-78 CNS was > 100 µM in each case. Also, the TGI with XF 498 CNS was > 100 µM.

With `COc1ccc(Nc2nnc(-c3nsc4ccccc34)s2)cc1`, the TGI in the experiment on COLO 205 colon was > 100 µM; in the experiment on DMS 114 small cell lung, > 100 µM; with DMS 273 small cell lung, > 100 µM; in the experiment on HOP-18 NSCLC, 2.66 µM; with KM20L2 colon it was > 100 µM; in the experiment with LXFL 529 NSCLC, > 100 µM. Further, the TGI in the experiment on M19-MEL melanoma, with SK-MEL-2 melanoma, in the experiment with SK-MEL-5 melanoma and in the experiment with SNB-78 CNS was > 100 µM throughout.

Turning to `COC(=O)C(=O)C(C(=O)C(=O)Nc1ccc(F)cc1)c1nc2ccc([N+](=O)[O-])cc2[nH]c1=O` (stereo not drawn), the TGI with COLO 205 colon, with DLD-1 colon, in the experiment on HOP-18 NSCLC, in the experiment with KM20L2 colon, with LXFL 529 NSCLC and in the experiment with M19-MEL melanoma was > 100 µM in each case. For the same molecule, the TGI in the experiment on RXF-631 renal, in the experiment on SK-MEL-5 melanoma, with SNB-78 CNS and in the experiment on XF 498 CNS was > 100 µM throughout.

Consider `O=C(c1cccs1)N(C(=S)N1CCN(c2ccccn2)CC1)c1ccccc1`, for which the TGI in the experiment with COLO 205 colon, in the experiment with DLD-1 colon, with DMS 114 small cell lung, in the experiment on DMS 273 small cell lung, with HOP-18 NSCLC and in the experiment on KM20L2 colon was > 100 µM each time. Moreover, the TGI in the experiment on LXFL 529 NSCLC is > 100 µM; with M19-MEL melanoma it was > 100 µM; in the experiment on SK-MEL-2 melanoma, > 100 µM; in the experiment with SK-MEL-5 melanoma, > 100 µM; with SNB-78 CNS, > 100 µM; with XF 498 CNS it was 84 µM.

Turning to `CCCCOC(=O)C1C2CCC(O2)C1C(=O)OCCCC` (stereo not drawn), the TGI was > 57.3 µM with COLO 205 colon; > 87.5 µM in the experiment on DLD-1 colon; > 55.7 µM in the experiment on DMS 114 small cell lung; > 100 µM with DMS 273 small cell lung; > 100 µM in the experiment on HOP-18 NSCLC; > 81.2 µM in the experiment with KM20L2 colon. For the same molecule, the TGI with M19-MEL melanoma, in the experiment with SK-MEL-2 melanoma, with SK-MEL-5 melanoma, with SNB-78 CNS and in the experiment with XF 498 CNS was > 100 µM throughout.

Turning to `NC(=O)N/N=C(\CC1OC(=O)c2ccccc21)c1ccco1` (stereo not drawn), the TGI with COLO 205 colon, in the experiment on DLD-1 colon, in the experiment on DMS 114 small cell lung, in the experiment on DMS 273 small cell lung, in the experiment on HOP-18 NSCLC and in the experiment on KM20L2 colon was > 100 µM in each case. Moreover, the TGI in the experiment with LXFL 529 NSCLC, in the experiment with M19-MEL melanoma, with RXF-631 renal, in the experiment on SK-MEL-2 melanoma and in the experiment on SK-MEL-5 melanoma was > 100 µM each time.

On to `O=c1[nH]c2cc(Cl)ccc2nc1/C(=N\O)C(O)c1cccc([N+](=O)[O-])c1` (stereo not drawn), for which the TGI in the experiment with COLO 205 colon, in the experiment on DLD-1 colon, in the experiment on DMS 114 small cell lung, in the experiment on HOP-18 NSCLC, in the experiment with KM20L2 colon and in the experiment on LXFL 529 NSCLC was > 100 µM each time. Moreover, the TGI with M19-MEL melanoma, with RXF-631 renal, in the experiment with SK-MEL-5 melanoma and with XF 498 CNS was > 100 µM in each case.

Turning to `COc1cc2c(oc(=O)c3c4oc([Si](C)(C)C)cc4cc(OC)c23)c2cccc(OCc3ccccc3)c12`, the TGI with COLO 205 colon is > 100 µM; with DLD-1 colon, > 100 µM; in the experiment on DMS 114 small cell lung it was > 100 µM; in the experiment on DMS 273 small cell lung it was 72.8 µM; in the experiment with HOP-18 NSCLC it was 63.8 µM; with KM20L2 colon, > 100 µM. The TGI in the experiment on LXFL 529 NSCLC was > 61.8 µM; in the experiment on M19-MEL melanoma, > 100 µM; with SK-MEL-2 melanoma it was > 100 µM; in the experiment on SK-MEL-5 melanoma it was > 100 µM; with SNB-78 CNS, 91.6 µM; in the experiment with XF 498 CNS it was 27 µM.

For `NC1=C(NC(=O)Cc2ccc(F)cc2)C(=O)c2ccccc2C1=O`, the TGI in the experiment on COLO 205 colon was > 100 µM; with DLD-1 colon it was > 71.4 µM; with DMS 114 small cell lung it was 27 µM; with DMS 273 small cell lung, > 100 µM; in the experiment on KM20L2 colon, > 100 µM; in the experiment with LXFL 529 NSCLC it was > 100 µM. The TGI in the experiment on M19-MEL melanoma is 45.4 µM; in the experiment with RXF-631 renal it was > 100 µM; in the experiment on SK-MEL-2 melanoma, > 100 µM; with SK-MEL-5 melanoma, > 100 µM; with SNB-78 CNS, 65.1 µM; in the experiment with XF 498 CNS, > 100 µM.
